Measurements: patent publication US6962911B2, “Pyrrolopyrimidinone derivatives, process of preparation and use” (SK Chemicals Co., Ltd., priority 2000, dated 2005)
Where a name gives a salt, the structure may show the parent alone. Read-outs that look alike come from different tables or passages of the source.

Columns and labels:
cGMP PDE V = cGMP PDE V (Homo sapiens, UniProt O76074); assay: cyclic nucleotide PDE V activity, PDE SPA assay kit, inhibition study; type: biochemical
Description: The cyclic nucleotide PDE V activity was determined using PDE SPA assay kit (Amersham Pharmacia biotech, UK). Each reaction mixture (100 μL total volume) consisted of the column elute containing PDE V (10 μL), [^3H]-cGMP (5 μCi/mL), bovine serum albumin (0.5 mg/mL), and MgCl2 (5 mM) in Tris-HCl buffer (15 mM, pH 7.5). The reactions were initiated by the addition of PDE V and the samples were incubated at 30° C. for 30 min, after which the reaction was stopped by the addition of 50 μL of SPA beads. The reaction tube was then settled for 20 min and was counted on the scintillation counter (Tri-carb 1500, Packard, USA). For the inhibition study of PDE V activity, the sildenafil and test compounds were dissolved in dimethyl sulfoxide (DMSO) and was diluted with distilled water. The final concentration of DMSO was less than 0.2% (v/v).
The following table illustrate the in vitro activities for a range of the compounds of the invention as inhibitors of cGMP PDE V.

[1] = in vitro inhibition of cGMP PDE V, [3H]-cGMP, 30° C., 30 min, read-out: IC50

IC50 (cGMP PDE V; [1]) [pM] | melting point | Structure (SMILES) | IC50 (cGMP PDE V) [pM]
640 | – | CCCc1cn(C)c2c(=O)[nH]c(-c3cc(S(=O)(=O)N4CCN(CCCF)CC4)ccc3OCC)nc12 [Example 19, 5-(2-ethoxy-5-(4-(3-fluoropropyl)piperazinylsulfonyl)phenyl)-1-methyl-3-n-propyl-1,6-dihydro-7H-pyrrolo[4,3-d]pyrimidin-7-one sulfuric acid] | –
490 | – | CCCc1cn(C)c2c(=O)[nH]c(-c3cc(S(=O)(=O)N4CCN(CCCCl)CC4)ccc3OCC)nc12 [Example 35, 5-(5-(4-(3-chloropropyl)piperazinylsulfonyl)-2-ethoxyphenyl)-1-methyl-3-n-propyl-1,6-dihydro-7H-pyrrolo[4,3-d]pyrimidin-7-one hydrochloride] | –
710 | 155 to 155.5 °C | CCCOc1ccc(S(=O)(=O)N2CCC(C(=O)O)CC2)cc1-c1nc2c(CCC)cn(C)c2c(=O)[nH]1 [Example 105] | –
270 | 138.5 to 139.5 °C | CCCc1cn(C)c2c(=O)[nH]c(-c3cc(S(=O)(=O)N4CCC(CC(=O)O)CC4)ccc3OCC)nc12 [Example 106, 5-(2-ethoxy-5-(4-(hydroxycarbonylmethyl)piperidinylsulfonyl)phenyl)-1-methyl-3-n-propyl-1,6-dihydro-7H-pyrrolo[4,3-d]pyrimidin-7-one] | –
280 | 188 °C (dec.) | CCCc1cn(C)c2c(=O)[nH]c(-c3cc(S(=O)(=O)N4CCN(Cc5nnn[nH]5)CC4)ccc3OCC)nc12 [Example 116] | –
700 | 150 °C (dec.) | CCCOc1ccc(S(=O)(=O)N2CCN(Cc3nnn[nH]3)CC2)cc1-c1nc2c(CCC)cn(C)c2c(=O)[nH]1 [Example 117, 5-(2-n-propoxy-5-(4-(1H-tetrazol-5-ylmethyl)piperazinylsulfonyl)phenyl)-1-methyl-3-n-propyl-1,6-dihydro-7H-pyrrolo[4,3-d]pyrimidin-7-one] | –

Structure (SMILES) | IC50 (cGMP PDE V; [1]) [pM] | melting point | IC50 (cGMP PDE V) [pM]
CCCc1cn(C)c2c(=O)[nH]c(-c3cc(S(=O)(=O)N4CCN(CCCl)CC4)ccc3OCC)nc12 [Example 33, 5-(5-(4-(2-chloroethyl)piperazinylsulfonyl)-2-ethoxyphenyl)-1-methyl-3-n-propyl-1,6-dihydro-7H-pyrrolo[4,3-d]pyrimidin-7-one] | – | 226 °C (dec.) | 2060
